# Measurements published in patent publication US8012993B2, “Stable S-nitrosothiols, method of synthesis and use” (Lacer, S.A., priority 2006, dated 2011).
# How the values were obtained:
# systemic blood pressure = experiment: Effect of nitrosothiols on systemic blood pressure; format: in vivo, male Wistar rats; settings: for Mean arterial pressure, Basal: before initiation of the treatment
# Description: Fasted male Wistar rats (300-320 g; Janvier, Le Genest St. Isle, France) were anesthetized with sodium pentobarbitone (60 mg/kg i.p.). The effect of treatments on systemic blood pressure was tested. Products dissolved in saline solution and were infused intravenously for 30 minutes at 0.5 ml/h. […] Basal blood pressure was measured before initiation of the treatment and was recorded throughout the treatment period using a pressure transducer connected to the carotid artery. The change in blood pressure was expressed as a % of change vs. basal values.
# [1] = test system: thrombus in arterio-venous shunt; experiment: Rat arterio-venous shunt silk thread model; format: in vivo, male Wistar rats; settings: rat AV shunt, perfusion 60 minutes
# Description: The activity of the products was assessed in experimental animals in accordance with the European Community Standards on the Care and Use of Laboratory Animals and approved by the Animal Care and Use Committee of local authorities. Two experimental models to test antithrombotic activity in rats were used: Arterio-Venous Shunt and Ferric chloride arterial thrombosis model. Additionally, the effect of the products on the systemic blood pressure was investigated. Fasted male Wistar rats (300-320 g; Janvier, Le Genest St. Isle, France) were anesthetized with sodium pentobarbitone (60 mg/kg i.p.). An arterio-venous (AV) shunt was prepared according to the technique of Umetsu and Sanai (1978). Two 12 cm-long polyethylene tubes (0.85- and 1.27-mm i.d. and o.d., respectively) linked to a central part (6 cm-long; 1.14-mm i.d.) containing a 5-cm cotton thread and filled with […]) saline solution were placed between the right carotid artery and the left jugular vein. All products were given i.v through the jugular vein for 60 minutes. Shunt was placed 45 minutes after the initiation of the perfusion with the testing substances and removed at the end of the perfusion i.e. after 15 min of blood circulation. Cotton thread supporting the thrombus was extracted.
# [2] = Stability study: storage in closed borosilicate glass vial, HPLC analysis; format: physicochemical
# arterial thrombosis = experiment: Rat arterial thrombosis model (ferric chloride, carotid artery); format: in vivo, male Wistar rats; settings: i.v. infusion for 30 minutes
# Description: The activity of the products was assessed in experimental animals in accordance with the European Community Standards on the Care and Use of Laboratory Animals and approved by the Animal Care and Use Committee of local authorities. Two experimental models to test antithrombotic activity in rats were used: Arterio-Venous Shunt and Ferric chloride arterial thrombosis model. Additionally, the effect of the products on the systemic blood pressure was investigated. Fasted male Wistar rats (300-320 g; Janvier, Le Genest St. Isle, France) were anesthetized with sodium pentobarbital (60 mg/kg i.p.) and thermoregulated by use of blankets (Biosis homeothermic blanket control unit; Biosis, Spain). A segment (approximately 1-cm long) of the left carotid artery was exposed and fitted at the distal end with an appropriately sized Doppler flow probe. Thrombosis was induced by applying a 70% ferric chloride solution embedded patch onto the artery. Blood flow velocity was measured using a Doppler flowmeter (Transonic Systems, San Diego, Calif.) and data recorded using a system for acquisition of data (Acqk). Blood flow was recorded for 60 min post-lesion. When the flow declined to zero, the time in minutes to thrombus formation was noted. The protocol followed was originally described by Feuerstein G Z, et al Artherioscler. Thromb. Vasc. Biol. 1999, 19: 2554-2562 and modified by Kurz K D, et al Thromb. Res. 1990, 60:269-280. The number of animals presenting no occlusion 30 min post-lesion were also noted. Products were dissolved in saline and were given as an i.v. infusion for 30 minutes. ED50 for each product was calculated and results are shown in Table 1 • Anti-thrombotic effect of compounds compared with reference compound in rat arterial thrombosis model after i.v. administration for 30 minutes.
# intraocular pressure = experiment: Alfa-chymotrypsin-induced glaucoma, intraocular pressure; format: in vivo; settings: glaucoma rabbits; for intraocular pressure, 0 hr / intraocular pressure, 1 hr / intraocular pressure, 2 hr: 3 drops instillation
# Description: The method used was that described by Gabriele Campana, Claudio Bucolo, Giovanna Murari and Santi Spampinato in Pharmacol. Exp Therap Vol. 303, Issue 3, 1086-1094, December 2002
# Animals were injected with intra muscular injection of dexamethasone at the dose rate of 10 mg/Kg body weight, to avoid immediate inflammation. Animals were anesthetized with ketamine (50 mg/kg IV) in combination with Dizepam.
# Xylocalne (4%) was used for local anesthesia topically. A cannula attached to reservoir was inserted into the anterior chamber with the help of a 30 gauge needle to provide a hydrostatic pressure of 25 mmHg during injection of alpha-chymotrypsin. Then a second appropriately shaped 30 gauge needle was introduced near the pupil. Freshly prepared 150 units of alpha chymotrypsin prepared in 0.1 ml of sterile saline was irrigated through the cannula into the posterior chamber. Care was taken to prevent the contact of alpha chymotrypsin with corneal stroma. Both cannulas were carefully removed without significant loss of aqueous humor. Immediately after surgery the eye treated with Sofracort (Corticosteroid) to reduce the chances of fungal or microbial infection.
# All the animals were kept under observation for 5 days and after these five days the intraocular pressure (IOP) was measured daily with a Schiontz type indentation tonometer using 5.5 gm weights and by compilation of readings the maximum period required to achieve a stable increase in IOP was determined. […] IOP was measured after 15 days for 3 consecutive days, every morning (at same time) to assure stable IOP.
# All the animals were closely observed for the development of glaucoma. Thirty animals showing the symptoms of glaucoma and with the intra ocular pressure more than 30 mmHg were selected for the present investigation.
# Compound (R,S)-4-(Acetylamino-ethoxycarbonyl-methyl)-1-methyl-4-S-nitroso-mercapto-piperidinium chloride (example 1g) was administered to a group of rabbits at a concentration of 0.05% by weight [0.05 g in 100 mL of saline serum] by 3 drops instillation. For comparative data, the compound Timolol (Timoftol®) widely used for the treatment of glaucoma, was also administered to another group of rabbits at a concentration of 0.5% by weight.
# The intraocular pressure measurements are included in the table 2 in mm Hg taken at 0, 1 and 2 h after 3 drops instillation.
# [3] = anesthetized rat, i.v. infusion 30 min, dose 100 times the antithrombotic ED50
# [4] = change vs. basal after 30 min i.v. infusion, dose 100 times the antithrombotic ED50
# [5] = at 4° C., closed glass vial, no longer stable when it loses more than 5% of initial purity (HPLC)
# [6] = at 25° C., closed glass vial, no longer stable when it loses more than 5% of initial purity (HPLC)
SMILES,"Mean arterial pressure, Basal (systemic blood pressure; anesthetized rat)","Mean arterial pressure, After 30 min infusion (systemic blood pressure; [3])","Mean arterial pressure, Change (systemic blood pressure; [4])",ED50 (anti-thrombotic effect) (arterial thrombosis),"time the compound was stable [2, 5]","time the compound was stable [2, 6]",further results
"N[C@@H](CCC(=O)N[C@@H](CSN=O)C(=O)NCC(=O)O)C(=O)O [GSNO, S-nitrosoglutathione, reference compound]",112.2 ± 6.2 mm Hg,98.8 ± 4.1 mm Hg,−12.0%,"18.1 μg/kg, i.v.",–,–,"Antithrombotic protection ([1]; dose 4.0 μg/kg i.v.): 58%; time the compound was stable ([2]; at 25° C., prior art S-nitrothiol compounds, loss of more than 5% of initial purity): 1 days"
"CC(C)(C)NC[C@H](O)COc1nsnc1N1CCOCC1 [Timolol, reference compound]",–,–,–,–,–,–,"intraocular pressure, 0 hr (intraocular pressure; 0.5% by weight): 34.45 ± 0.58 mm Hg; intraocular pressure, 1 hr (intraocular pressure; 0.5% by weight): 24.77 ± 0.26 mm Hg; intraocular pressure, 2 hr (intraocular pressure; 0.5% by weight): 24.54 ± 0.26 mm Hg"
"CCOC(=O)[C@@H](NS(=O)(=O)c1ccccc1)C1(SN=O)CCN(C)CC1.Cl (racemic) [Example 7 (hydrochloride salt), (R,S)-4-(Benzenesulfonylamino-ethoxycarbonyl-methyl)-1-methyl-4-S-nitrosomercapto-piperidinium chloride]",117.9 ± 10.2 mm Hg,–,–,"56.4 μg/kg, i.v.",> 6 months,at least 4 months,"Mean arterial pressure, Change (systemic blood pressure; rat, in vivo): +0.8%; Mean arterial pressure, After 30 min infusion (systemic blood pressure; rat, in vivo, iv): 118.8 ± 11.1 mm Hg; Antithrombotic protection ([1]; dose 10.4 μg/kg i.v.): 60%"
"CCOC(=O)C(NC(C)=O)C1(SN=O)CCN(C)CC1.Cl (racemic) [Example 1g, (R,S)-4-(Acetylamino-ethoxycarbonyl-methyl)-1-methyl-4-S-nitrosomercapto-piperidinium chloride]",115.7 ± 8.3 mm Hg,113.6 ± 9.2 mm Hg,−1.8%,"9.1 μg/kg, i.v.",more than 10 months,2.5 months,"Antithrombotic protection ([1]; dose 2.0 μg/kg i.v.): 54%; intraocular pressure, 0 hr (intraocular pressure; 0.05% by weight in saline): 34.33 ± 0.68 mm Hg; intraocular pressure, 1 hr (intraocular pressure; 0.05% by weight in saline): 24.72 ± 0.47 mm Hg; intraocular pressure, 2 hr (intraocular pressure; 0.05% by weight in saline): 23.86 ± 0.32 mm Hg; effect on intraocular pressure (in words) (intraocular pressure; 0.05%, 10-fold lower concentration than Timolol): significantly reduces the intraocular pressure"
"CC(=O)NC(C(=O)O)C1(SN=O)CCN(C)CC1 (stereo not drawn) [example 2 of EP 1157987, N-acetyl-2-amino-2[4-(4-S-nitrosomercapto-1-methylpiperidin)]acetic acid, reference compound]",–,95.1 ± 2.4 mm Hg,–,"4.1 μg/kg, i.v.",–,–,Antithrombotic protection ([1]; dose 1.7 μg/kg i.v.): 61%
